Bridge positions count the residues as written; N and C are the ends. Square brackets hold non-standard residues; d marks the D form. Ends that are not written are not given here. Peptide text beside a SMILES is read from it. * marks the point of attachment. Palmitoyl = CCCCCCCCCCCCCCCC(=O)*; hArg = N=C(N)NCCCC[C@H](N)C(=O)O; Mpa = O=C(O)CCS
How the values were obtained:
PAR4 [1] = target: T1, PAR4 (Homo sapiens, UniProt Q96RI0); assay: PAC-1 binding assay, platelets stimulated with γ-thrombin; format: cell-based; conditions: stimulation with 316 nM γ-thrombin; compound concentration not given
T1 construct: 60 μL of washed platelets (Tyrodes buffer containing 0.1% BSA); endogenous in cells; host or cells: washed platelets
T1 sequence (Q96RI0 18-385): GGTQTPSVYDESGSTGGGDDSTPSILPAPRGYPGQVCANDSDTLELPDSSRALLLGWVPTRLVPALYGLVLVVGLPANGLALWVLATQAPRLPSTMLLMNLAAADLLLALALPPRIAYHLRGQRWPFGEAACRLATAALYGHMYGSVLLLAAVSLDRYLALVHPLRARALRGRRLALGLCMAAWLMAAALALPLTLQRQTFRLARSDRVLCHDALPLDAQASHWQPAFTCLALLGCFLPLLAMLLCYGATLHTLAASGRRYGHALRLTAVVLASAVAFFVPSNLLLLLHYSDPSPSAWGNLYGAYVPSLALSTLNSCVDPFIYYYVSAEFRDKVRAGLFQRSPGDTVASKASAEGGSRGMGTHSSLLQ
Excerpt: Gamma-thrombin is a proteolytic product of alpha-thrombin cleavage by a serine protease. Cleavage results in the disruption of exosite I which interacts directly with the hirudin-like domain of its primary substrates fibrinogen and protease-activated receptor 1 (PAR1). As a result, gamma-thrombin selectively cleaves PAR4 in the nanomolar range, leaving PAR1 intact. See Soslau, G., Class, R., Morgan, D. A., Foster, C., Lord, S. T., Marchese, P., and Ruggeri, Z. M. (2001) Unique pathway of thrombin-induced platelet aggregation mediated by glycoprotein Ib, The Journal of biological chemistry 276, 21173-21183. Gamma-thrombin (Enzyme Research Laboratories, South Bend, Ind.) is produced by trypsin-sepharose cleavage of alpha-thrombin. To neutralize alpha-thrombin contamination, stock solutions of gamma-thrombin are preincubated with 1 unit/mL hirudin prior 100 fold dilution into the sample for platelet stimulation. This concentration of hirudin is capable of abolishing alpha-thrombin activity with no effect on the activity of gamma-thrombin. See Soslau, G., Goldenberg, S. J., Class, R., and Jameson, B. (2004) Differential activation and inhibition of human platelet thrombin receptors by structurally distinct alpha-, beta- and gamma-thrombin, Platelets 15, 155-166. Single point screens and concentration response curves are conducted with 316 nanomolar or 100 nanomolar gamma-thrombin using PAC1 and CD61p binding.
(§1) PAC-1 Binding assay: 60 μL of washed platelets (Tyrodes buffer containing 0.1% BSA) at a concentration of 0.15×10^8 platelets/mL were added to 5 mL round bottom polystyrene tubes (BD, Franklin Lakes, N.J.). FITC conjugated PAC-1 (BD Biosciences, San Jose, Calif.) antibody was diluted (to the manufacturers recommended concentration) in Tyrode's buffer containing 0.1% BSA. 40 μL of diluted antibody was added to the platelets and allowed to incubate for 5 minutes. Platelets were pre-treated with indicated concentrations of antagonist or DMSO control for 5 minutes followed by addition of PAR-1-AP (GL Biochem, Shanghai, China) or PAR-4-AP for 10 minutes. Platelet activity was quenched by the addition ice cold 1.5% paraformaldehyde followed by dilution in 1× phosphate buffered saline. The final DMSO concentration was 0.5%. Platelets were stored up to 18 hours at 4° C. before flow cytometric analysis. Analysis was carried out on a BD FACS Canto II (Franklin Lakes, N.J.). Fluorescent intensity was determined for 100,000 events within the platelet gate. Data was collected and analyzed via FACS DiVa software. Flow cytometric data analysis was conducted by the following method. The DMSO-vehicle treated control was subtracted from each data point. 100% response for PAR-4-AP was determined for each individual as the DMSO treated control stimulated with either 200 μM PAR-4-AP, or 20 μM PAR-1-AP. Data was plotted in GraphPad PRISM v.5.0. For compounds with a notable reduction in PAC-1 binding response, a dose response curves and subsequent IC50 values were generated using the inhibitory sigmoidal dose response ‘variable slope’ parameter. PAR-4 results were plotted as mean±SEM.

PAR4 [2] = target: T1, PAR4; assay: PAC-1 binding assay, washed platelets stimulated with PAR-4-AP (flow cytometry); format: cell-based; conditions: PAR-4-AP stimulation, dose response curve
Experimental: as §1

PAR1 [3] = target: T2, PAR1 (Homo sapiens, UniProt P25116); conditions: cited from earlier work
T2 construct: host or cells: patients, in vivo
T2 sequence (P25116 22-425): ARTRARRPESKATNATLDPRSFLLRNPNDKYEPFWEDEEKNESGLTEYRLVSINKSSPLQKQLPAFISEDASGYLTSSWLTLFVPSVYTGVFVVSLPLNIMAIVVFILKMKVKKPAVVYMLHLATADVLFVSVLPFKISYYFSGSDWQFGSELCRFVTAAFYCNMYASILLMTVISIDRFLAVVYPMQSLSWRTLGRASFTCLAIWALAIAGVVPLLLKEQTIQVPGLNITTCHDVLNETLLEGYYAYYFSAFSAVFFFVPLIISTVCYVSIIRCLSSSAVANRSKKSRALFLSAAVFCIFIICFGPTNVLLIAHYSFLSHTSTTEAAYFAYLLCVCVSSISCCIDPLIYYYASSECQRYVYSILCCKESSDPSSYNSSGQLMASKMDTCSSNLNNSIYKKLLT

PAR1 [4] = target: T2, PAR1; conditions: cited from earlier work; remark: listed apart in the source
PAR4 [5] = target: T3, PAR4 (Rattus norvegicus, UniProt Q920E0); conditions: rat hindpaw, carrageenan; cited from earlier work
T3 construct: host or cells: rat, in vivo
T3 sequence (Q920E0 17-395): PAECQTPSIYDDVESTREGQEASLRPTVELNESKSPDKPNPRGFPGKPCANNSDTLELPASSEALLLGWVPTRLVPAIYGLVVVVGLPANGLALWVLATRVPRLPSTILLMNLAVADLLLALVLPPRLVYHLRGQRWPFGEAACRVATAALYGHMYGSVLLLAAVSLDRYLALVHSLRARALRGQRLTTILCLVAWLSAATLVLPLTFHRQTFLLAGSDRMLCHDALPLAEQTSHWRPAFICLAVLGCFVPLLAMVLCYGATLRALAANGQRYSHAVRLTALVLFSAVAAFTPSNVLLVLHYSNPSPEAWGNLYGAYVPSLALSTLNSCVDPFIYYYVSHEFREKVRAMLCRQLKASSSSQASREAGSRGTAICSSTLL

PAR4 [6] = target: T3, PAR4; conditions: rat myocardial ischemia/reperfusion; cited from earlier work
PAR4 [7] = target: T4, PAR4 (Mus musculus, UniProt O88634); conditions: cited from earlier work
T4 construct: PAR4-AP, or Trypsin injected pleural cavities of mice; host or cells: mouse, in vivo
T4 sequence (O88634 17-396): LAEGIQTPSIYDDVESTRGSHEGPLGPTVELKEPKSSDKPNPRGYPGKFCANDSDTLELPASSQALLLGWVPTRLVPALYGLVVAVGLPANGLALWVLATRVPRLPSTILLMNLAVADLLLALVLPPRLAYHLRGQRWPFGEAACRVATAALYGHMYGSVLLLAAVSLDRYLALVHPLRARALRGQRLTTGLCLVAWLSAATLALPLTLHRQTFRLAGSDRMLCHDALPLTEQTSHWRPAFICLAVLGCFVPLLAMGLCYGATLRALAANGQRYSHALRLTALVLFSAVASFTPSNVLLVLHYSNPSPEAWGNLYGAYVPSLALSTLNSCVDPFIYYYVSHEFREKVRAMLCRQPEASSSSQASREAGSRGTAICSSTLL

influenza viruses = conditions: mice treated with GPIIbIIIa antagonist; cited from earlier work
[8] = target: T5, protease-activated receptor type 4 (PAR4) (Homo sapiens, UniProt Q96RI0); conditions: abstract of Lee et al. 2001; cited from earlier work
T5 construct: host or cells: platelets
T5 sequence (Q96RI0 18-385): T1 sequence (Q96RI0 18-385)

[9] = patients with myocardial infarction, added to standard anti-platelet therapy
[10] = patients with peripheral artery disease
[11] = patients with prior ischemic stroke, added to standard of care
[12] = non-ST-segment ACS patients undergoing CABG
[13] = non-ST-segment elevation ACS patients

## COc1nn2cc(-c3cc(-c4ccc(Cl)cc4)no3)nc2s1 [Example B2]
PAR4 [1]
  γ-thrombin % Max PAC-1 binding (316 nM): 94%
PAR4 [2]
  IC50: 1930 nM

## CCOC(=O)N[C@@H]1CC[C@@H]2[C@@H](C1)C[C@H]1C(=O)O[C@H](C)[C@H]1[C@H]2/C=C/c1ccc(-c2cccc(F)c2)cn1 [Vorapaxar]
PAR1 [3]; [9]
  moderate to severe bleeding: significant increase
  risk of cardiovascular death or ischaemic events: reduced the risk
PAR1 [3]; [10]
  limb ischemia and peripheral revascularization: significant beneficial effects
  risk of bleeding: increased risk of bleeding
PAR1 [3]; [11]
  major vascular events: without improvement
  risk of intracranial hemorrhage: increased the risk
PAR1 [4]; [12]
  ischemic events: significant reduction
  major CABG-related bleeding: no significant increase
PAR1 [4]; [13]
  primary composite endpoint: did not significantly reduce
  risk of major bleeding, including intracranial hemorrhage: significant increase

## palmitoly-SGRRYGHALR (Palmitoyl-SGRRYGHALR) [palmitoylated peptide named beside P4pal-10 in the carrageenan model]
PAR4 [5]
  edema and granulocyte recruitment: reduced edema and granulocyte recruitment

## COc1nn2cc(-c3sc(-c4ccccc4)nc3C)nc2s1 [Example B6]
PAR4 [1]
  γ-thrombin % Max PAC-1 binding (316 nM): 92%
PAR4 [2]
  IC50: 69.8 nM

## COc1nn2cc(-c3c(-c4ccccc4)noc3C)nc2s1 [Example B4]
PAR4 [1]
  γ-thrombin % Max PAC-1 binding (316 nM): 93%

## trans-cinnamoyl-YPGKF [tcY-NH2]
PAR4 [6]
  infarct size: reduced infarct size
PAR4 [7]; CXCL8, carrageenan, PAR4-AP or Trypsin injected pleural cavities of mice
  neutrophil migration: inhibit neutrophil migration
PAR4 [7]; after intrapleural injection of Eotaxin-1
  eosinophil recruitment: blocks eosinophil recruitment

## COc1nn2cc(-c3csc4ccccc34)nc2s1 [Example B3]
PAR4 [1]
  γ-thrombin % Max PAC-1 binding (316 nM): 99%
PAR4 [2]
  IC50: 458 nM

## COc1nn2cc(-c3nccs3)nc2s1 [Example B7]
PAR4 [1]
  γ-thrombin % Max PAC-1 binding (316 nM): 98%

## N=C(N)NCCCC[C@@H]1NC(=O)CCSSC[C@@H](C(N)=O)NC(=O)[C@@H]2CCCN2C(=O)[C@H](Cc2c[nH]c3ccccc23)NC(=O)[C@H](CC(=O)O)NC(=O)CNC1=O [eptifibatide] ([Mpa][hArg]GDWPC-NH2; disulfide 1-7)
Influenza viruses
  protection from death caused by influenza viruses: had the same effect

## COc1nn2cc(-c3cnn(-c4ccccc4)c3C)nc2s1 [Example B5]
PAR4 [1]
  γ-thrombin % Max PAC-1 binding (316 nM): 95%
PAR4 [2]
  IC50: 1530 nM

## COc1nn2cc(-c3ccc(-c4ccccc4)s3)nc2s1 [Example B8, 2-Methoxy-6-(5-phenylthiophen-2-yl)imidazo[2,1-b][1,3,4]thiadiazole]
PAR4 [1]
  γ-thrombin % Max PAC-1 binding (316 nM): 78%
PAR4 [2]
  IC50: 7.46 nM

## COC(=O)c1[nH]c2ccc(OC(F)(F)F)cc2c1-c1cn2nc(OC)sc2n1 [Example B1, Methyl 3-(2-methoxyimidazo[2,1-b][1,3,4]thiadiazol-6-yl)-5-(trifluoromethoxy)-1H-indole-2-carboxylate]
PAR4 [1]
  γ-thrombin % Max PAC-1 binding (316 nM): 100%
PAR4 [2]
  IC50: 2110 nM

## CCOC(=O)c1ccc(-c2nn(Cc3ccccc3)c3ccccc23)cc1
[8]
  inhibition of PAR4-dependent platelet activation: selective and potent inhibitor
